In experiment [1] the test system is Jurkat LTR-gfp cells. The experiment in a line: HIV-1 LTR-gfp provirus pool in Jurkat T cells. The settings on record: four weeks after transduction with LTR-GFP (FIG. 22B). The experiment is classed as cell-based, human. The text has this:
J-Lat A1 was selected to have a silent HIV-1 LTR-driven provirus with the ability to reactivate in response to TNFα^31. The unique provirus within a clone such as J-Lat A1 may be sensitive to position-dependent silencing effects and therefore may not accurately reflect the sensitivity of a population of HIV-1 proviruses to transcriptional activation by Vpx or to silencing by FAM208A. To address the effect of Vpx and FAM208A on a population of proviruses with diverse integration sites, Jurkat T cells were transduced with an HIV-1 LTR driven reporter vector (LTR-gfp) that retains complete LTRs, tat, and rev, but has a frameshift mutation in env, an ngfr reporter gene in place of nef, and gfp in place of gag, pol, vif, and vpr (FIG. 18D). Four weeks after transduction with LTR-GFP, the presence of latent proviruses within the pool of Jurkat cells was confirmed by reactivation with either TNFα or TCR-stimulation (FIG. 22B). […] Compared with control cells, vpx or FAM208A knockdown increased the percentage of GFP cells, whether cells were treated with TNFα or not (FIGS. 18E and 18F). […] Additionally, expression vectors for SIVMND25440 Vpx, SIVRCM02CM8081 Vpx, SIVMND1GB1 Vpr, or […]1 Vpr all increased GFP expression in Jurkat LTR-gfp cells (FIG. 22C). […]
Cells were fixed in BD Cytofix Buffer prior to data acquisition on a BD C6 Accuri. Data was analyzed in FlowJo.

The target in experiment [2] is HA-tagged FAM208A (Homo sapiens, UniProt Q9UK61). Description: Co-immunoprecipitation of HA-FAM208A with FLAG-Vpx in HEK293 cells. Type of experiment: binding. The settings on record: versus untreated cells with wild-type SIVMAC251 Vpx (FIG. 17H). The text has this: Degradation of SAMHD1 requires direct interaction with Vpx or Vpr. To determine if Vpx similarly associates with proteins of the HUSH complex, HA-tagged FAM208A was co-transfected into HEK293 cells with FLAG-tagged SIVMAC251 Vpx or SIVRCM02CM8081 Vpx. When anti-FLAG antibody was used to immunoprecipitate either of the two Vpx proteins from the soluble cell lysate, HA-FAM208A was detected in the immunoprecipitate (FIG. 17H). The strength of the FAM208A signal in the Vpx pull-out increased when the co-transfected HEK293 cells were incubated with the proteasome inhibitor PR171, or when wild-type SIVMAC251 Vpx was replaced in the transfection by a mutant (Q76A) that is incapable of binding DCAF1 (FIG. 17H and FIGS. 21D and 21E).
Cells were washed in PBS, counted, normalized for cell number, and lysed directly in 1×SDS-PAGE sample buffer. Samples were run on NuPage 4-12% Bis-Tris gels followed by blotting onto nitrocellulose membranes. Primary antibodies used: FAM208A (Atlas, HPA00875), MPHOSPH8 (Proteintech, 16796-1-AP), PPHLN1 (Sigma, HPA038902), SETDB1 (Proteintech 11231-1-AP), DCAF1 (Proteintech, 11612-1-AP), FLAG (Novus, NB600-345), FLAG (Sigma, F1804, used for IP), and HA (Biolegend, 901501).

Sequence of HA-tagged FAM208A (Q9UK61 whole entry): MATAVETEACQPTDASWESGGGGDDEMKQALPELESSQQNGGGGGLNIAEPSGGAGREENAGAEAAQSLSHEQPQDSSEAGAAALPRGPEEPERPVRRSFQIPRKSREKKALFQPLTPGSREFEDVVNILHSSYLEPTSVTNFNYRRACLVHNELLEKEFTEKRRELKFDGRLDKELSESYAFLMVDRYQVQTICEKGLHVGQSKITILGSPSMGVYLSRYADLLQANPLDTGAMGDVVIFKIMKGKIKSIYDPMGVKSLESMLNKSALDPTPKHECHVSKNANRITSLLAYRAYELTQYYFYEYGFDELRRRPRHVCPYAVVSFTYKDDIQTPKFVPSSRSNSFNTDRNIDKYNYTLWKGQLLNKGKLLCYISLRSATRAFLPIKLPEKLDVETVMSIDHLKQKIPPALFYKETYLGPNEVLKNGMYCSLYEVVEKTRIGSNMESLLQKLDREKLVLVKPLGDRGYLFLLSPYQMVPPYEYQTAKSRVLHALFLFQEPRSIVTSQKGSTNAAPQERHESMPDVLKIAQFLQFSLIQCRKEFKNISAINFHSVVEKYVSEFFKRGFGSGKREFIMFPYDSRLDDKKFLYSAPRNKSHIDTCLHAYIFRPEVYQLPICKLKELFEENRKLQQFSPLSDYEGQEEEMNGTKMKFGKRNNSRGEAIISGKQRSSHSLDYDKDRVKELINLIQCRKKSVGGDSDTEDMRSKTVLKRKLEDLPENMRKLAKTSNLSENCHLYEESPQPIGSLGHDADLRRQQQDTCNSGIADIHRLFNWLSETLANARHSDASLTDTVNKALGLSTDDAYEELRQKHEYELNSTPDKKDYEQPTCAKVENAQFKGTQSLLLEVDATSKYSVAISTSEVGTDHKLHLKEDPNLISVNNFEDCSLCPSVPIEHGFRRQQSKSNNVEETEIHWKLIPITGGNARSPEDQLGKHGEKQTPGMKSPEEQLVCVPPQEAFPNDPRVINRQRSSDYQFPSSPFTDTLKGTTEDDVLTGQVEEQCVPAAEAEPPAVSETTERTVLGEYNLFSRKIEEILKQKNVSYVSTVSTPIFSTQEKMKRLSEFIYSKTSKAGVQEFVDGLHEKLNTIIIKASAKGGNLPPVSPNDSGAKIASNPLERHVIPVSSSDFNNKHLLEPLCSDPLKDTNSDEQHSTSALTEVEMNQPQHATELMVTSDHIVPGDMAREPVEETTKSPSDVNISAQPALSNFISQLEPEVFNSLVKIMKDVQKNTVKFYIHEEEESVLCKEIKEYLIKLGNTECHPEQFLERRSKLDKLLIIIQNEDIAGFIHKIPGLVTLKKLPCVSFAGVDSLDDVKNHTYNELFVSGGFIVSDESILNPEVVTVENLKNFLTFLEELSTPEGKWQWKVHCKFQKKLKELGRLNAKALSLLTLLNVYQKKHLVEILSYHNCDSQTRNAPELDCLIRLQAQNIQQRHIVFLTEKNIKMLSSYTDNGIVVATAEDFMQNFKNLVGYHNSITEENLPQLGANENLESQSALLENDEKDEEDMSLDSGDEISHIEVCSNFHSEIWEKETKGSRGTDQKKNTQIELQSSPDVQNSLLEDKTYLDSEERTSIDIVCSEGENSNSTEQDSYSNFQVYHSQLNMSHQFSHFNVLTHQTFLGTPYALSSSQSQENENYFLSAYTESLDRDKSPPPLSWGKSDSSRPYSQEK

In the case of TNFα, the “reactivation of latent proviruses” value in experiment [1] is “reactivation”.
`CC(C)C[C@H](NC(=O)[C@H](CCc1ccccc1)NC(=O)CN1CCOCC1)C(=O)N[C@@H](Cc1ccccc1)C(=O)N[C@@H](CC(C)C)C(=O)[C@@]1(C)CO1` [PR171]: in experiment [2], the “strength of the FAM208A signal in the Vpx pull-out” value is “increased”.
